Assay [1] deals with DD1α. As to the kind of experiment: Ig fusion protein staining of 293T transfectants (flow cytometry). The assay is classed as binding, human. The note with it: cell surface staining. Here is the method: The bound Ig fusion proteins were detected with anti-Ig-APC. Empty vector (pcDNA3.1)-transfected cells stained with Ig proteins are shown as a negative control (gray filled) and other staining is shown as black open. […] Purified CD4+ T cells from Wt and DD1α−/− mice were assayed for binding to Ig fused DD1α or PD1 proteins. […] The bound Ig fusion proteins were detected by anti-Ig-APC. Binding amounts were determined by percentage of APC positive cells compared to control Ig protein-bound cells. […] The bead bound proteins were eluted and determined by western blot analysis using anti-HA antibody (asterisks). […] The bead bound proteins were eluted and detected by western blot analysis with anti-DD1α or anti-PD1 antibody (asterisk). […] MCF7 cells were treated by Nutlin-3 (10 μM) for 1 to 3 days. MCF7 cells were transfected with control siRNA or p53 siRNA for 24 hours and treated with CPT (500 nM) or DMSO (control) for 1 and 2 days. The levels of indicated proteins were analyzed by western blot analysis. Total RNAs from control siRNA or p53 siRNA transfected MCF7 cells were assessed for mRNA levels of PD1 or PD-L1 by real-time quantitative PCR.
(A flow cytometer gives signals particle by particle.)

Assay [2] has as its system DD1α. As to the kind of experiment: Ig fusion protein-pull down assay. The assay is classed as binding, human. How it is done: FIGS. 6A-6E show physical association of DD1α with PD1 but not with PD-L1. (FIG. 6A) Interaction of DD1α with PD1 or DD1α. […] The bound Ig fusion proteins were detected with anti-Ig-APC. Empty vector (pcDNA3.1)-transfected cells stained with Ig proteins are shown as a negative control (gray filled) and other staining is shown as black open. (FIG. 6B) DD1α binds to both DD1α and PD1 on CD4+ T cells. Purified CD4+ T cells from Wt and DD1α−/− mice were assayed for binding to Ig fused DD1α or PD1 proteins. Cells were incubated with DD1α-Ig (open), PD1-Ig (open), or control Ig proteins (gray filled) and the bound Ig fusion proteins were detected by anti-Ig-APC. […] The bound Ig fusion proteins were detected by anti-Ig-APC. Binding amounts were determined by percentage of APC positive cells compared to control Ig protein-bound cells. (FIG. 6C) Ig-pulldown experiments show DD1α interaction with both DD1α and PD1. […] The bead bound proteins were eluted and determined by western blot analysis using anti-HA antibody (asterisks). (FIG. 6D) Ig fusion proteins (control Ig, DD1α-Ig, or PD1-Ig) were incubated with lysates from Nutlin-3-treated MCF7 cells and pulled down using protein A/G agarose. The bead bound proteins were eluted and detected by western blot analysis with anti-DD1α or anti-PD1 antibody (asterisk). (FIG. 6E) p53-mediated induction of PD1 and PD-L1. MCF7 cells were treated by Nutlin-3 (10 μM) for 1 to 3 days. MCF7 cells were transfected with control siRNA or p53 siRNA for 24 hours and treated with CPT (500 nM) or DMSO (control) for 1 and 2 days. The levels of indicated proteins were analyzed by western blot analysis. Total RNAs from control siRNA or p53 siRNA transfected MCF7 cells were assessed for mRNA levels of PD1 or PD-L1 by real-time quantitative PCR. PD1 or PD-L1 mRNA levels were normalized to 36B4 expression and shown as mean±SD (n=3). Protein levels of PD1 and PD-L1 were examined in EJ-p53tet cells in the absence or presence of tetracycline (tet), ZR75-1 cells treated with CPT (500 nM), or A375 cells exposed to 13 Gy ionizing irradiation for the indicated times.
Ig fusion proteins (control Ig, DD1α-Ig, or PD1-Ig) were incubated with lysates from Nutlin-3-treated MCF7 cells and pulled down using proten A/G agarose. The bead bound proteins were eluted and detected by western blot analysis with anti-DD1α or anti-PD1 antibody.
Based on the results that both PD-1 and DD1α receptors on T cells contribute to the co-inhibitory roles for DD1α(FIG. 5), it was tested whether DD1α could physically and functionally associate with PD-1 receptor. […] To confirm the specificity of this interaction, the inventors carried out Ig fusion protein-pull down assays using lysates from PD-1, DD1α, or TIM3-transfected 293T cells. […]

Assay [3] has as its system Jurkat cells expressing DD1α receptor. The assay can be described thus: Ig fusion protein binding to Jurkat cells. The note with it: several concentrations; anti-Ig-APC detection. Here is the method:
Jurkat cells overexpressing DD1alpha (transfected with DD1alpha cDNA) or control Jurkat cells were assayed for binding to Ig-fused DD1α or PD-1 proteins. Cells were incubated with several different concentrations of DD1α-Ig (left panels) or PD1-Ig (right panels), and the bound Ig fusion proteins were detected by anti-Ig-APC. Binding amounts were determined by percentage of APC positive cells.

DD1α, sequence (Q9H7M9 33-311): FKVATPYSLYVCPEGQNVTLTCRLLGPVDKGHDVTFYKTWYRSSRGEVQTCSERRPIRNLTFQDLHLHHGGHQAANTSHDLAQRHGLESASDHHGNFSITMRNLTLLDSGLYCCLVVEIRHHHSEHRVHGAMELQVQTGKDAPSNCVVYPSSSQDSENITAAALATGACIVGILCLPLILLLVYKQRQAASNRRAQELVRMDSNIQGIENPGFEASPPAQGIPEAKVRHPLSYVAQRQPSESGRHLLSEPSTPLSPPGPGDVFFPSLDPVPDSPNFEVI

As for “DD1α-Ig: the extracellular region of DD1α fused with the immunoglobulin G Fc segment”, the “binding to DD1α-transfected 293T cells” value in the assay on DD1α [1] is “specifically bound”. Also, the “pull down of DD1α” value in the assay with DD1α [2] (lysates from transfected 293T cells) is recorded as “pulled down”. In addition, the “pull down of endogenous DD1α receptor” value in the assay with DD1α [2] (lysates of Nutlin-3-treated MCF7 cells) was “detected”. For the same substance, in assay [3], the “binding to Jurkat cells expressing DD1α receptor” value is on record as “bind”.
